According to US8383642B2, “Spiropiperidine compounds” (Eli Lilly and Company, priority 2009, dated 2013):

How the values were obtained:
[1] = molecular target: T1, Gal4 PPARα (Homo sapiens, UniProt Q07869); assay: Gal4 PPARα reporter functional assay (CTF); type: cell-based; settings: examined up to 10 μM; CV1 cells; luciferase
T1 construct: expressed in transfected cells; host or cells: CV1 (African green monkey kidney)
T1 sequence (Q07869 239-466 limits assumed): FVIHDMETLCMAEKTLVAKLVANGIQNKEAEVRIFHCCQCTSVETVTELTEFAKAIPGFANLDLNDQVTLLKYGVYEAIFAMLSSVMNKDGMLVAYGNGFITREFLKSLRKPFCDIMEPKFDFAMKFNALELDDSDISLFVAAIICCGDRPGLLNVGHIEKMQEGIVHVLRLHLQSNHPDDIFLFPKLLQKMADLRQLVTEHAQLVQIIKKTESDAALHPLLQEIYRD
Excerpt: Gal4 PPARα, Gal4 PPARδ, and PPARγ reporter functional assays are also used to monitor the selectivity of exemplified compounds. CV1 cells, which are derived from the renal tissue of an African green monkey, are transfected with various receptor and reporter plasmids using Fugene. For the Gal4 PPARα and PPARδ assays, a reporter plasmid containing five tandem copies of the yeast transcription protein Gal4 response element, cloned upstream of a firefly luciferase gene driven by the major late promoter of adenovirus, is transfected together with a Simian Virus 40 (SV40) driven plasmid constitutively expressing a hybrid protein containing the Gal4 DNA binding domain (DBD), and either the PPARα or PPARδ ligand binding. For the PPARγ assay, plasmids encoding PPARγ and RXRα, both driven by a cytomegalovirus (CMV) promoter are transfected together with a plasmid containing luciferase reporter cDNA driven by the TK promoter and a receptor response element (2×PPRE). Cells are transfected in T225 cm^2 cell culture flasks in DMEM media with 5% charcoal-stripped FBS. […] After 24 hours incubation with compounds, cells are lysed and luciferase activity is determined as a measure of receptor activation by luminescence. […] The maximum percent stimulation is determined versus maximum stimulation obtained with 10 μM of an appropriate PPAR agonist reference compound. […]

[2] = test system: Male Balb/c mice; assay: Intraperitoneal Glucose Tolerance Test (IPGTT); type: in vivo, mouse; settings: for glucose levels: positive control 10 mg/kg
Procedure: To examine the ability of exemplified compounds to activate GPR40 in-vivo resulting in anti-diabetic efficacy, i.e. an increase in insulin and reduction in glucose levels, a 4-day intraperitoneal glucose tolerance test (ipGTT) study is completed with each compound.
Male Balb/c (Albino mice) mice (8-9 weeks of age) are single housed and fed with normal rodent chow diet and water ad libitum. Animals are weighed and randomized by body weight and daily body weights are recorded. Upon study initiation, animals are dosed once per day orally for three days using a formulation carrying methylcellulose and tween-80. On the night before the 4-day IPGTT study, animals are fasted overnight in clean cages. On the morning of the IPGTT (Day 4), animals are dosed orally with compound or vehicle alone 60 minutes prior to the IPGTT (glucose 2 g/kg, i.p.). Blood glucose levels are determined from tail bleeds taken at 0, 3, 7, 15, 30, and 60 min after glucose challenge. Plasma is isolated and used to estimate respective insulin levels. The blood glucose excursion profile from t=0 to t=60 min is used to integrate an area under the curve (AUC) for each treatment. Percent lowering in glucose is calculated from the AUC data of the compounds with respect to the AUC of vehicle group. The test compound is orally administered at 0.03, 0.1, 0.3, 1.0, or 3.0 mg/kg, and a positive control is administered at 10 mg/kg. […] The ED50 for the compound of Example 1 based on AUCs for glucose lowering is 0.09 mg/kg. […] The results of this assay support the compound's activation of GPR-40, with resulting in vivo anti-diabetic efficacy.

CC#C[C@@H](CC(=O)O)c1ccc(OCc2ccc(CN3CCC4(C=Cc5ccccc54)CC3)cc2)cc1 [Example 1, (3S)-3-(4-{[4-(1′H-Spiro[indene-1,4′-piperidin]-1′-ylmethyl)benzyl]oxy}phenyl)hex-4-ynoic acid]
functional activation [1]: No functional activation
insulin levels ([2]; 3 minute time point, 1.0 and 3.0 mg/kg oral): significantly elevated
glucose levels ([2]; 3 minute time point, Example 1 0.03-3.0 mg/kg oral): No concentration of the compound of Example 1 or the positive control significantly lowered
glucose levels ([2]; 7 minute time point, Example 1 0.3, 1.0, and 3.0 mg/kg oral): significantly lowered
glucose levels ([2]; 15 minute time point, Example 1 0.1, 0.3, 1.0, and 3.0 mg/kg oral): significantly lowered
glucose levels ([2]; 30 minute time point, all doses of Example 1 (0.03-3.0 mg/kg oral)): significantly lowered
glucose levels ([2]; 60 minute time point, all doses of Example 1 (0.03-3.0 mg/kg oral)): significantly lowered
ED50 ([2]; Mus musculus, oral, once per day, 4-day, glucose 2 g/kg i.p., AUC t=0 to 60 min, read-out: ED50 based on AUCs for glucose lowering): 0.09 mg/kg
